Data taken from ChEMBL document CHEMBL1157530, “Cytotoxic and antibacterial sesquiterpenes from Thespesia populnea” (J Nat Prod, 2008).
In brackets after ≈: the same amount, converted by molar mass.

Columns and labels:
MCF7 = assay: Cytotoxicity against human MCF7 cells by SRB assay; type: functional, cell-based
HeLa = assay: Cytotoxicity against human HeLa cells by SRB assay; type: functional, cell-based
HT-29 = assay: Cytotoxicity against human HT29 cells by SRB assay; type: functional, cell-based
KB = assay: Cytotoxicity against human KB cells by SRB assay; type: functional, cell-based
Bacillus subtilis = assay: Antibacterial activity against Bacillus subtilis; type: functional
Staphylococcus aureus = assay: Antibacterial activity against Staphylococcus aureus TISTR517; type: functional
Enterococcus faecalis = assay: Antibacterial activity against Enterococcus faecalis; type: functional

| SMILES | IC50 (MCF7) [µg/mL] | IC50 (HeLa) [µg/mL] | IC50 (HT-29) [µg/mL] | IC50 (KB) [µg/mL] | MIC (Bacillus subtilis) [µg/mL] | MIC (Staphylococcus aureus) [µg/mL] | MIC (Enterococcus faecalis) [µg/mL] |
| --- | --- | --- | --- | --- | --- | --- | --- |
| CC1=CC2=C(C(C)C)C(=O)CC(C)C2=C(O)C1=O (configuration not stated) [MANSONONE S] | > 5 | > 5 | > 5 | > 5 | – | – | – |
| CC1=Cc2c(c(C)cc3c2C(C)COC3(C)C)C(=O)C1=O (configuration not stated) [POPULENE C] | 2.35 (≈ 8.26 µM) | 3.4 (≈ 12 µM) | 2.9 (≈ 10.2 µM) | 3 (≈ 10.6 µM) | 4.69 (≈ 16.5 µM) | > 10 | – |
| CC1=Cc2c(c(C)cc3c2C(C)CO3)C(=O)C1=O (configuration not stated) [MANSONONE D] | 0.8 (≈ 3.3 µM) | 2.8 (≈ 11.6 µM) | > 5 | 4.9 (≈ 20.2 µM) | 2.34 (≈ 9.66 µM) | – | – |
| COc1c(O)c(C=O)c2c(O)c(-c3c(C)cc4c(C(C)C)c(OC)c(O)c(C=O)c4c3O)c(C)cc2c1C(C)C [6,6'-METHOXYGOSSYPOL] | 4 (≈ 7.32 µM) | > 5 | 3 (≈ 5.49 µM) | > 5 | 2.34 (≈ 4.28 µM) | 4.69 (≈ 8.58 µM) | 1.17 (≈ 2.14 µM) |
| CC1=C2OCC(C)c3ccc(C)c(c32)C(=O)C1=O (configuration not stated) [MANSONONE E] | 0.05 (≈ 0.206 µM) | 0.55 (≈ 2.27 µM) | 0.18 (≈ 0.743 µM) | 0.4 (≈ 1.65 µM) | 4.69 (≈ 19.4 µM) | – | – |
| Cc1cc2c(C(C)C)ccc(C)c2cc1O | > 5 | > 5 | > 5 | > 5 | 0.59 (≈ 2.75 µM) | – | – |
| Cc1cc2c(C(C)C)c(O)c(O)c(C=O)c2c(O)c1-c1c(C)cc2c(C(C)C)c(O)c(O)c(C=O)c2c1O [GOSSYPOL] | – | 0.08 (≈ 0.154 µM) | > 5 | 0.04 (≈ 0.0771 µM) | 1.17 (≈ 2.26 µM) | 1.17 (≈ 2.26 µM) | – |
| Cc1cc2c(c(O)c1O)[C@H](C)CC1=C2[C@@H](C)COC1(C)C [POPULENE D] | 1.85 (≈ 6.41 µM) | 0.95 (≈ 3.29 µM) | 2.37 (≈ 8.22 µM) | 3.1 (≈ 10.7 µM) | 4.69 (≈ 16.3 µM) | – | – |
